How the values were obtained:
hPPARα (LBD) = target: T1, hPPARα (LBD) (Homo sapiens, UniProt Q07869); experiment: PPAR activating effect, GAL4-hPPARα LBD luciferase reporter transfection in CV-1 cells; assay type: cell-based; conditions: Table 26, test compound 10^-7 M, 100% = GW-590735 10^-6 M
T1 construct: A receptor expression plasmid (pSG5-GAL4-hPPARα or γ or δ (LBD)); GAL4 (fusion partner); expressed in transfected cells; host or cells: CV-1 cells (ATCC)
T1 sequence (Q07869 239-466 limits assumed): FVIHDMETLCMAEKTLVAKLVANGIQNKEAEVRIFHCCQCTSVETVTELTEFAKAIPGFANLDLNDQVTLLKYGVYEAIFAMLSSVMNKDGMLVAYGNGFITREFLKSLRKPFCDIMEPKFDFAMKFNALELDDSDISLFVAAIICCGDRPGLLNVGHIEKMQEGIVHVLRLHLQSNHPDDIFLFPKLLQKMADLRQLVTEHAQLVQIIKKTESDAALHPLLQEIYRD

hPPARδ (LBD) = target: T2, hPPARδ (LBD) (Homo sapiens, UniProt Q03181); experiment: PPAR activating effect, GAL4-hPPARδ LBD luciferase reporter transfection in CV-1 cells; assay type: cell-based; conditions: CV-1, 40 h; read-out: PPAR activity δ (relative value to control compound)
T2 construct: A receptor expression plasmid (pSG5-GAL4-hPPARα or γ or δ (LBD)); GAL4 (fusion partner); expressed in transfected cells; host or cells: CV-1 cells (ATCC)
T2 sequence (Q03181 211-439 limits assumed): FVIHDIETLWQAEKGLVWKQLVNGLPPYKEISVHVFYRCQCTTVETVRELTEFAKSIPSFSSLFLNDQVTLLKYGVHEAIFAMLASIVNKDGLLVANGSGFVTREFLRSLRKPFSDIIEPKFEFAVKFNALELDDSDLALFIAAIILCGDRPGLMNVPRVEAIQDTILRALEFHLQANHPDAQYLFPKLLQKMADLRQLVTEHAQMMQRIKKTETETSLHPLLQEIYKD

hPPARγ (LBD) = target: T3, hPPARγ (LBD) (Homo sapiens, UniProt P37231); experiment: PPAR activating effect, GAL4-hPPARγ LBD luciferase reporter transfection in CV-1 cells; assay type: cell-based; conditions: Table 26, test compound 10^-7 M, 100% = Rosiglitazone 10^-5 M
T3 construct: A receptor expression plasmid (pSG5-GAL4-hPPARα or γ or δ (LBD)); GAL4 (fusion partner); expressed in transfected cells; host or cells: CV-1 cells (ATCC)
T3 sequence (P37231 238-503 limits assumed): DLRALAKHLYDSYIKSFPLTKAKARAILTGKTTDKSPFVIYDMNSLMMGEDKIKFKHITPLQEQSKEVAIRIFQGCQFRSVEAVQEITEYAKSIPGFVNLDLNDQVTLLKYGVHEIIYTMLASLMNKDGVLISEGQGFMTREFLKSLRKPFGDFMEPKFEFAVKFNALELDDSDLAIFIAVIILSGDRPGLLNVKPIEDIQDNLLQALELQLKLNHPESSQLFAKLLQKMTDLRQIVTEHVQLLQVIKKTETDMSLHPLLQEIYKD

activation at 0.1 µM (hPPARα (LBD); CV-1, 40 h, read-out: PPAR activity α (relative value to control compound)) [%]	melting point [°C]	activation at 0.1 µM (hPPARδ (LBD)) [%]	activation at 0.1 µM (hPPARγ (LBD); CV-1, 40 h, read-out: PPAR activity γ (relative value to control compound)) [%]	PPAR activity α (relative value to control compound) (hPPARα (LBD))	PPAR activity γ (relative value to control compound) (hPPARγ (LBD))	SMILES
16.4	147 to 149	77.2	5.8	–	–	CCCc1c(CCc2noc3cc(N(C)CC(=O)O)c(C)cc23)sc2cc(C(F)(F)F)ccc12 [Example 24, N-[5-Methyl-3-[2-[3-propyl-6-(trifluoromethyl)benzothiophen-2-yl]ethyl]benzisoxazol-6-yl]-N-methylglycine]
–	–	87.4	–	Inactive	Inactive	CCCc1c(CCc2noc3cc(OCC(=O)O)c(C)cc23)sc2cc(C(F)(F)F)ccc12 [Example 25, [5-Methyl-3-[2-[3-propyl-6-(trifluoromethyl)benzothiophen-2-yl]ethyl]benzisoxazol-6-yloxy]acetic acid]
–	–	88.8	–	Inactive	Inactive	CCCc1c(CCc2noc3cc(CCC(=O)O)c(C)cc23)sc2cc(C(F)(F)F)ccc12 [Example 26, 3-[5-Methyl-3-[2-[3-propyl-6-(trifluoromethyl)benzothiophen-2-yl]ethyl]benzisoxazol-6-yl]propionic acid]
–	153 to 156	81.3	–	Inactive	Inactive	CC(C)c1c(CCc2noc3cc(N(C)CC(=O)O)ccc23)sc2cc(C(F)(F)F)ccc12 [Example 28, N-[3-[2-[3-Isopropyl-6-(trifluoromethyl)benzothiophen-2-yl]ethyl]benzisoxazol-6-yl]-N-methylglycine]

Source: patent US8648208B2, “Activating agent for peroxisome proliferator activated receptor” (Nippon Chemiphar Co. Ltd., priority 2008, dated 2014)
